In the supplement of paper PMC10307832:

How the values were obtained:
Experiment in all cases: relative viability (nuclei count vs DMSO), 5 days (fraction); higher = more cells survive
Everolimus + OSI-027 = compound: CO[C@H]1C[C@@H]2CC[C@@H](C)[C@@](O)(O2)C(=O)C(=O)N2CCCC[C@H]2C(=O)O[C@H]([C@H](C)C[C@@H]2CC[C@@H](OCCO)[C@H](OC)C2)CC(=O)[C@H](C)/C=C(\C)[C@@H](O)[C@@H](OC)C(=O)[C@H](C)C[C@H](C)/C=C/C=C/C=C/1C [Everolimus] + COc1cccc2cc(-c3nc([C@H]4CC[C@H](C(=O)O)CC4)n4ncnc(N)c34)[nH]c12 [OSI-027] (partner 0.5 µM)
Outline: (§1)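 Cells from lung cancer lines were seeded into 1536-well plates and, one day later, dosed by pin tool. Treatments were either a single drug or a fixed dose of an anchor drug with five library-drug doses (not always all listed) in √10 steps. After 5 days, nuclei were stained in a one-step fixation (final 0.05% Triton X-100, 1% formaldehyde, 1 ug/ml Hoechst) and counted on 4× images, and relative viability is the treated-to-vehicle nuclei ratio, as the median of duplicate plates.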

Everolimus + Crizotinib = compound: CO[C@H]1C[C@@H]2CC[C@@H](C)[C@@](O)(O2)C(=O)C(=O)N2CCCC[C@H]2C(=O)O[C@H]([C@H](C)C[C@@H]2CC[C@@H](OCCO)[C@H](OC)C2)CC(=O)[C@H](C)/C=C(\C)[C@@H](O)[C@@H](OC)C(=O)[C@H](C)C[C@H](C)/C=C/C=C/C=C/1C [Everolimus] + C[C@@H](Oc1cc(-c2cnn(C3CCNCC3)c2)cnc1N)c1c(Cl)ccc(F)c1Cl [Crizotinib] (partner 1 µM)
Outline: as §1

Everolimus + Tozasertib = compound: CO[C@H]1C[C@@H]2CC[C@@H](C)[C@@](O)(O2)C(=O)C(=O)N2CCCC[C@H]2C(=O)O[C@H]([C@H](C)C[C@@H]2CC[C@@H](OCCO)[C@H](OC)C2)CC(=O)[C@H](C)/C=C(\C)[C@@H](O)[C@@H](OC)C(=O)[C@H](C)C[C@H](C)/C=C/C=C/C=C/1C [Everolimus] + Cc1cc(Nc2cc(N3CCN(C)CC3)nc(Sc3ccc(NC(=O)C4CC4)cc3)n2)n[nH]1 [Tozasertib] (partner 0.1 µM)
Outline: as §1

Everolimus + Linsitinib = compound: CO[C@H]1C[C@@H]2CC[C@@H](C)[C@@](O)(O2)C(=O)C(=O)N2CCCC[C@H]2C(=O)O[C@H]([C@H](C)C[C@@H]2CC[C@@H](OCCO)[C@H](OC)C2)CC(=O)[C@H](C)/C=C(\C)[C@@H](O)[C@@H](OC)C(=O)[C@H](C)C[C@H](C)/C=C/C=C/C=C/1C [Everolimus] + C[C@]1(O)C[C@@H](c2nc(-c3ccc4ccc(-c5ccccc5)nc4c3)c3c(N)nccn32)C1 [Linsitinib] (partner 1 µM)
Outline: as §1

Cell Line	relative viability (Everolimus + OSI-027; first compound 0.01 µM)	relative viability (Everolimus + OSI-027; first compound 0.03162 µM)	relative viability (Everolimus + OSI-027; first compound 0.1 µM)	relative viability (Everolimus + OSI-027; first compound 0.3162 µM)	relative viability (Everolimus + OSI-027; first compound 1 µM)	relative viability (Everolimus + Crizotinib; first compound 0.01 µM)	relative viability (Everolimus + Crizotinib; first compound 0.03162 µM)	relative viability (Everolimus + Crizotinib; first compound 0.1 µM)	relative viability (Everolimus + Crizotinib; first compound 0.3162 µM)	relative viability (Everolimus + Crizotinib; first compound 1 µM)	relative viability (Everolimus + Tozasertib; first compound 0.01 µM)	relative viability (Everolimus + Tozasertib; first compound 0.03162 µM)	relative viability (Everolimus + Tozasertib; first compound 0.1 µM)	relative viability (Everolimus + Tozasertib; first compound 0.3162 µM)	relative viability (Everolimus + Tozasertib; first compound 1 µM)	relative viability (Everolimus + Linsitinib; first compound 0.01 µM)	relative viability (Everolimus + Linsitinib; first compound 0.03162 µM)	relative viability (Everolimus + Linsitinib; first compound 0.1 µM)	relative viability (Everolimus + Linsitinib; first compound 0.3162 µM)	relative viability (Everolimus + Linsitinib; first compound 1 µM)
SW 1573	0.42	0.309	0.352	0.345	0.365	0.593	0.521	0.53	0.383	0.427	0.16	0.172	0.13	0.157	0.132	0.615	0.454	0.506	0.401	0.386
PC-14	0.567	0.482	0.418	0.455	0.455	0.983	0.936	0.942	0.908	0.741	0.592	0.673	0.499	0.417	0.424	0.937	1	0.945	0.82	0.724
LK-2	0.152	0.153	0.167	0.162	0.172	0.24		0.22	0.284	0.227	0.165		0.179	0.17	0.17	0.426	0.497	0.286	0.282	0.198
COR-L23	0.334	0.352	0.374	0.419	0.367	0.515	0.597	0.623	0.666	0.635	0.334	0.324	0.288	0.255	0.233	0.552	0.501	0.603	0.708	0.652
NCI-H1944	0.365	0.305	0.294	0.358	0.326	0.82	0.878	0.751	0.827	0.697	0.215	0.236	0.205	0.224	0.185	0.84	0.824	0.684	0.754	0.715
HCC-78	0.348	0.332	0.572	0.311	0.347	0.315	0.261	0.265	0.259	0.298	0.361	0.428	0.406	0.426	0.454	0.482	0.319	0.272	0.28	0.293
NCI-H2405	0.505	0.474	0.532	0.459	0.488	0.792	0.693	0.683	0.696	0.659	0.832	0.729	0.717	0.762	0.657	0.515	0.49	0.463	0.536	0.536
SK-LU-1	0.225	0.187	0.248	0.269	0.265	0.478	0.511	0.572	0.544	0.626	0.285	0.262	0.24	0.241	0.289	0.501	0.66	0.552	0.614	0.631
EMC-BAC-2	0.288	0.275	0.274	0.307	0.283	0.562	0.546	0.485	0.504	0.535	0.289	0.296	0.244	0.258	0.266	0.587	0.542	0.532	0.517	0.501
NCI-H596	0.506	0.471	0.417	0.45	0.457	0.677	0.65	0.631	0.619	0.683	0.528	0.548	0.485	0.455	0.478	0.653	0.651	0.53	0.532	0.515
LCLC-97TM1	0.455	0.362	0.36	0.337	0.458	0.406	0.28	0.485	0.291	0.216	0.189	0.216	0.181	0.196	0.171	0.141	0.142	0.147	0.129	0.151
H3255	0.531	0.426	0.381	0.402	0.339	0.575	0.505	0.498	0.555	0.527	0.597	0.55	0.412	0.462	0.402	0.804	0.695	0.559	0.602	0.504
LXF-289	0.654	0.604	0.529	0.572	0.576	0.885	0.978	0.904	0.88	0.888	0.217	0.217	0.162	0.205	0.193	0.984	0.972	0.913	1.02	0.917
UMC-11	0.272	0.288	0.257	0.297	0.277	0.271	0.244	0.239	0.249	0.286	0.212	0.195	0.208	0.215	0.198	0.443	0.391	0.419	0.388	0.393
LC-2-ad	0.669	0.7	0.602	0.618	0.569	0.542	0.48	0.384	0.449	0.417	0.434	0.384	0.385	0.423	0.343	0.75	0.744	0.781	0.766	0.702
SK-MES-1	0.398	0.512	0.499	0.414	0.483	0.871	0.689	0.689	0.644	0.608	0.791	0.807	0.794	0.779	0.662	0.964	0.661	0.689	0.606	0.511
A-427	0.449	0.457	0.333	0.398	0.432	0.776	0.768	0.745	0.704	0.675	0.17	0.164	0.203	0.184	0.19	0.854	0.772	0.823	0.675	0.834
NCI-H322M	0.425	0.501	0.473	0.433	0.495	0.914	0.753	0.775	0.795	0.704	0.416	0.355	0.397	0.421	0.426	0.87	0.695	0.683	0.739	0.645
HCC-366	0.755	0.614	0.49	0.727	0.5	0.433	0.441	0.526	0.295	0.372	0.097	0.102	0.347	0.0539	0.0447	0.338	0.372	0.274	0.291	0.343
NCI-H1975	0.496	0.498	0.45	0.473	0.436	0.924	0.774	0.921	0.876	0.783	0.658	0.62	0.528	0.64	0.466	0.747	0.618	0.672	0.665	0.597
NCI-H1437	0.379	0.363	0.344	0.365	0.487	0.969	0.903	0.782	0.873	0.648	0.421	0.51	0.411	0.403	0.361	0.589	0.598	0.493	0.36	0.279
NCI-H2009	0.34	0.344	0.424	0.374	0.397	0.693	0.856	0.612	0.646	0.763	0.576	0.65	0.545	0.612	0.491	0.875	0.897	0.901	0.887	0.795
NCI-H1651	0.411	0.439	0.384	0.41	0.58	0.846	0.786	0.735	0.708	0.566	0.616	0.542	0.383	0.485	0.366	0.586	0.538	0.495	0.495	0.454
LCLC-103H	0.347	0.385	0.402	0.367	0.366	1.1	0.943	1.03	0.841	0.818	0.459	0.451	0.4	0.446	0.322	1.04	0.905	0.864	0.831	0.747
NCI-H1666	0.722	0.725	0.719	0.811	0.722	0.878	0.776	0.629	0.877	0.654	0.571	0.625	0.559	0.668	0.527	0.644	0.407	0.468	0.455	0.468
NCI-H1734	0.408	0.411	0.365	0.417	0.423	0.501	0.48	0.401	0.378	0.449	0.263	0.234	0.223	0.235	0.248	0.416	0.568	0.518	0.467	0.575
EPLC-272H	0.206	0.204	0.203	0.24	0.253	0.68	0.573	0.542	0.512	0.601	0.19	0.286	0.176	0.242	0.216	1.15	0.786	0.64	0.619	0.657
NCI-H2023	0.197	0.25	0.178	0.153	0.158	0.433	0.388	0.368	0.395	0.312	0.273	0.203	0.235	0.235	0.225	0.301	0.323	0.303	0.282	0.219
BEN	0.247	0.292	0.272	0.253	0.239	0.573	0.391	0.311	0.387	0.328	0.462	0.452	0.491	0.415	0.354	0.571	0.355	0.338	0.334	0.326
